# Laboratory results reported in article PMC11513854, “De novo GTP synthesis is a metabolic vulnerability for the interception of brain metastases” (Cell Reports Medicine, 2024).
# Assays:
# lung-BMIC line (BT478) = assay: Dose-response assay, PrestoBlue; format: cell-based, human; details: Homo sapiens; BT478, 72-h treatment, PrestoBlue; N/A, not applicable; read-out: Lung-BM IC50
# Description: (§1) For preliminary drug screening, drugs were plated at a concentration of 10 μM in a 96-well plate, in triplicate at a density of 1000 cells/well, and incubated at 37°C with a humidified atmosphere of 5% CO2 for three days. Vehicle controls for cell death are used in each functional experiment. Following treatment, PrestoBlue (20 μL, Invitrogen), a resazurin-based cell viability reagent and fluorescence indicator of cell metabolism, was added to each well to estimate proliferation approximately 2 h prior to measuring fluorescence intensity via FLUOstar Omega Fluorescence 556 Microplate reader (BMG LABTECH) at an excitation and emission wavelength of 540 nm and 590 nm, respectively. Results were analyzed using Omega analysis software.
# (§2) Dose-response assays were conducted using the same protocol apart from drugs being plated using 2-fold serial dilutions (20 μM - 39 nM) as previously described.[66] The half maximal inhibitory concentration (IC50) is determined by plotting percent cell viability by the logarithmic concentration of drug. IC80 concentrations will be used for subsequent functional assays (cell proliferation, sphere formation), as determined by the following formula: ICF=100−F/F^1/H×IC50 where F = fraction of maximal response and H = hill slope.
# neural stem cells = assay: Dose-response assay, PrestoBlue, normal brain cell control; format: cell-based; details: Homo sapiens, 72-h treatment, N/A, not applicable
# Excerpt: BM cell lines from primary lung (BT478, BT530), breast (BT923, BT930) and melanoma (BT673, BT917) cancers are derived from primary patient samples with written consent from the patients and approved by the Hamilton Health Sciences McMaster Health Sciences Research Ethics Board (REB #07366), in compliance with Canada’s Tri-Council Policy Statement on the Ethical Conduct for Research Involving Humans and International Ethical guidelines for Biomedical Research Involving Human Subjects. MDA-MB-231 was purchasedfrom American Type Culture Collection and used to generate a brain metastasis derivate following injection into the mammary fat pad and isolation from the brain at human endpoint. Cell lines are maintained in NeuroCult Complete (NCC) media consisting of NeuroCult NS-A Basal Medium (Stemcell technology #05750) and supplemented with 50 mL of NeuroCult Supplement, 20 ng/mL epidermal growth factor (EGF), 10 ng/mL fibroblast growth factor (FGF), 2 μg/mL heparin and 1% penicillin-streptomycin. Human fetal neural stem cells (hNSCs) are derived in-house using a previously described protocol.[62] Normal human astrocytes are purchased from American Type Culture Collection. All cell lines were maintained at 37°C with a humidified atmosphere of 5% CO2.
# as §2, with “The” for “Dose-response assays were conducted using the same protocol apart from drugs being plated using 2-fold serial dilutions (20 μM - 39 nM) as previously described.[66] The”
# [1] = Brain homogenate binding, equilibrium dialysis; format: in vitro ADME, mouse; details: CD-1, mouse, pooled brain homogenate, pH 7.4, 37°C
# Description: The samples were applied to a dialysis well plate and sealed with dialysis membrane. Dialysis buffer (100 mM sodium phosphate pH 7.4, 150 mM NaCl) was applied to opposite side of the membrane (receiver well of the plate), and samples were incubated at 37°C with 5% CO2 for 4 h. Following completion of incubation period, samples were recovered from each side of the dialysis membrane and processed by protein precipitation, and analysis by LC-MS/MS for compound concentration. A corresponding set of samples was also prepared and stop solution (acetonitrile containing 200 ng/mL tolbutamide and 200 ng/mL labetalol) was immediately added, and samples were obtained from each side of the dialysis plate for mass spectrometric analysis.
# [2] = system: patient-derived lung-BMIC line (BT478); assay: Preliminary drug screen of CMap compounds, PrestoBlue viability; format: cell-based, human; details: 10 μM, 72 h, PrestoBlue readout
# Excerpt: In this work, we aimed to identify potential druggable targets for BM, by characterizing the transcriptomes of pre-metastatic lung-, breast-, and melanoma-BMICs (see Figure 1A).[13]^,[14] We identified 3,951 genes that are commonly differentially expressed in the pre-metastatic cohort of cells compared to BMICs isolated from established patient tumors (Figure 1C).[14] We input the shared gene signature of pre-metastatic BMICs (defined by the commonly shared gene signature from BMICs of all three primary tumor cohorts) as a query signature for computational CMap[17] analysis to identify compounds that evoke opposing transcriptional changes (see Figure 1A). […]
# as §1, with “Vehicle controls for cell death are used in each functional experiment.” left out
# MDR1 = assay: Bi-directional permeability via MDR1-MDCKII cells; format: in vitro ADME; details: dog, MDCK-MDR1, pH 7.4; 2 μM (digoxin 10 μM), 2.5 h
# Description: (§3) MDR1-MDCKII permeability assays were performed by Wuxi AppTec Co. Briefly, MDR1-MDCK1 cells were seeded onto polycarbonate membranes in 96-well insert system plates and allowed to develop into monolayers. […] The plate was incubated for 2.5 h (37°C, 5% CO2) and the media was sampled on either side and the compound present was quantified by LC-MS/MS and the concentrations were used to calculate the efflux ratio. Digoxin (10 μM), nadolol (2 μM), and metoprolol (2 μM) were used as controls.
# MDR1-MDCKII cells = assay: Bi-directional permeability via MDR1-MDCKII cells; format: in vitro ADME
# Description: as §3
SMILES,IC50 (lung-BMIC line (BT478)) [µM],"Papp A→B at 2.5 h, 2 μM (MDR1) [×10⁻⁶ cm/s]",Rank of Papp (MDR1-MDCKII cells),IC50 (neural stem cells) [µM],further results
CC(C)NCC(O)COc1cccc2ccccc12 (stereo not drawn) [Propranolol],,,,,"fraction unbound at 4 h, 2 μM [1]: 0.023"
CN1CCc2cccc3c2[C@H]1Cc1ccc(O)c(O)c1-3 [apomorphine],,,,,viability of lung-BMICs (BT478) compared to vehicle control [2]: significantly inhibited BMIC viability
COc1c(C)c2c(c(O)c1C/C=C(\C)CCC(=O)OCCN1CCN(C(=O)OC(C)(C)C)CC1)C(=O)OC2 [Compound 2],17.1,,,353,
COCCc1ccc(OCC(O)CNC(C)C)cc1 (stereo not drawn) [Metoprolol],,29.5,High,,
COc1c(C)c2c(c(O)c1C/C=C(\C)CCC(=O)NCCCN1CCC1)C(=O)OC2 [Compound 5],,,,182,
COc1c(C)c2c(c(O)c1C/C=C(\C)CCC(=O)NCCN1CCCC1)C(=O)OC2 [Compound 6],24.7,,,70.8,
COc1c(C)c2c(c(O)c1C/C=C(\C)CCC(=O)N1CCN(C)CC1)C(=O)OC2 [Compound 4],,,,493,

# More lines, main results first:
IC50 (lung-BMIC line (BT478)) [µM],"Papp A→B at 2.5 h, 2 μM (MDR1) [×10⁻⁶ cm/s]",Rank of Papp (MDR1-MDCKII cells),SMILES,IC50 (neural stem cells) [µM],further results
48,,,"COc1c(C)c2c(c(O)c1C/C=C(\C)CCC(=O)OCCN1CCOCC1)C(=O)OC2 [MMF (1), Mycophenolate mofetil]",31.2,
,0.198,Low,CC(C)(C)NCC(O)COc1cccc2c1CC(O)C(O)C2 (stereo not drawn) [Nadolol],,
,0.556,Low,C[C@H]1O[C@@H](O[C@H]2[C@@H](O)C[C@H](O[C@H]3[C@@H](O)C[C@H](O[C@H]4CC[C@@]5(C)[C@H](CC[C@@H]6[C@@H]5C[C@@H](O)[C@]5(C)[C@@H](C7=CC(=O)OC7)CC[C@]65O)C4)O[C@@H]3C)O[C@@H]2C)C[C@H](O)[C@@H]1O [Digoxin],,"Papp B→A at 2.5 h, 2 μM (MDR1): 11.8 ×10⁻⁶ cm/s; efflux ratio at 2.5 h, 2 μM (MDR1): 21.2"
